This note sets out measurements from article PMC6010023, “Diethylalkylsulfonamido(4-methoxyphenyl)methyl)phosphonate/phosphonic acid derivatives act as acid phosphatase inhibitors: synthesis accompanied by experimental and molecular modeling assessments” (Journal of Enzyme Inhibition and Medicinal Chemistry, 2016).

Like-named read-outs stand apart in the source and are kept apart here.

In this assay the target is T1, red kidney bean PAP (rkbPAP) (Phaseolus vulgaris, UniProt P80366).
T1 construct: The rkbPAP was purified from red kidney bean according to the method described by Beck et al; from tissue; host or cells: red kidney bean seeds (Phaseolus vulgaris), local market
T1 sequence (P80366 23-459): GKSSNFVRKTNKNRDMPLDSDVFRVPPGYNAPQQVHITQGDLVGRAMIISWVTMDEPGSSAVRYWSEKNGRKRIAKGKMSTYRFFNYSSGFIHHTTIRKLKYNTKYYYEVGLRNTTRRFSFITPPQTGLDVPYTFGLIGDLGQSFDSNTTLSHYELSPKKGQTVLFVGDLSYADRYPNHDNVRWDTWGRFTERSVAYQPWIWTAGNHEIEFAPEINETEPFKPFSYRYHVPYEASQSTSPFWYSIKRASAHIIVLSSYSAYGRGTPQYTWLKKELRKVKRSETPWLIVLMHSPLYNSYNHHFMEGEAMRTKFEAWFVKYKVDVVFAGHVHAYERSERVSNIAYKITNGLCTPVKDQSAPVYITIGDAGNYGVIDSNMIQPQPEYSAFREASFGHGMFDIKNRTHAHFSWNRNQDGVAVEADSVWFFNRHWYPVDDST
The experiment in a line: rkbPAP inhibition assay with p-NPP as substrate. Type of assay: biochemical. The settings on record: for Ki / inhibition of PAP (in words): pH 4.9; for inhibition mode: from Ki vs KI and Lineweaver–Burk plots. The text has this:
PAP from red kidney bean (rkbPAP) was purified following a previously published protocol. Briefly, red kidney beans (Phaseolus vulgaris), provided from local market, were ground and suspended in 0.5 M sodium chloride solution. The suspension was filtered through a muslin cloth, followed by ethanol fractionation and ammonium sulfate precipitation. The purple enzyme solution was dialyzed against several changes of 0.25 M NaCl over a period of several days. The purple precipitate, which formed in the dialysis bag was collected by centrifugation. The resulting preparation stored at 4 °C in 0.5 M NaCl. The protein identity and purity was tested by SDS–polyacrylamide gel electrophoresis (SDS–PAGE) and by comparing with molecular weight protein markers, by loading the protein samples on a 12% slab gel. Protein concentration was determined by Lowry method.
Inhibition assays for rkbPAP was performed in 96-well multi-titer plates using a microplate reader. Kinetic measurements were taken at pH 4.9 (0.1 M sodium citrate buffer with 5% DMSO) at 25 °C using p-nitrophenyl phosphate (p-NPP) as the substrate at concentrations of 1, 2, 4, 6, 8, 10, 12, 14, 18 and 24 mM[29]. The hydrolysis of p-NPP by PAP produces p-nitrophenol (p-NP), which has a characteristic intense yellow color at 405 nm with […] [18]^,[26]. The concentration of enzyme used was ∼60 nM, while at least eight concentrations of each compound ranged from 50 to 2000 µM. The IC50 values obtained by “Dose–response inhibition/variable slopes” equation that was performed using GraphPad Prism version 5.00 for Windows (GraphPad Software, San Diego CA, www.graphpad.com). The experimental data are representative example of three independent experiments. In most cases, the standard deviations were almost within 5% of the experimental values, except for some inhibition data points where standard errors of means were within 10% of the measured values. p < .05 was considered statistically significant.
To determination of inhibition mode, the Michaelis–Menten constant (Km) and maximum velocity (Vmax) and inhibition constants (Ki and KI) values were obtained using Equation (1)[29]^,[30] in the presence of at least four concentrations of each compound which were selected from concentration–activity curves. The data were analyzed by nonlinear regression using the program GraphPad Prism (1) v=Vmax[S]/[S](1+[I]/KI)+Km(1+[I]/Ki) where Ki and KI are the equilibrium dissociation constants for competitive and uncompetitive inhibitor binding, respectively, while, v, [S] and [I] represent the rate of product formation, the substrate and the inhibitor concentration, respectively. […] If Ki < KI, the type of enzyme inhibition was defined as competitive-noncompetitive and if Ki > KI, the type of enzyme inhibition was defined as uncompetitive–noncompetitive. […] For better visual presentation of data of inhibition mode, the Lineweaver–Burk plots were also provided.

Setting [1] is: dissociation constant of enzyme–inhibitor complex (competitive), read-out: Ki.
Where [2] appears, read: dissociation constant of enzyme–substrate–inhibitor complex (uncompetitive), read-out: KI.
Setting [3] is: rkbPAP, pH 4.9, 25 °C, p-NPP substrate, read-out: IC50.
The mark [4] stands for this setting: KI, dissociation constant of enzyme–substrate–inhibitor complex (uncompetitive).
[5] abbreviates: Ki, dissociation constant of enzyme–inhibitor complex (competitive).
Where [6] appears, read: rkbPAP, pH 4.9, 25 °C, p-NPP substrate.

In the case of `CCCCCCCCCCCCCCCCS(=O)(=O)NC(c1ccc(OC)cc1)P(=O)(O)O` (stereo not drawn) [4d, (Hexadecylsulfonamido(4-methoxyphenyl)methyl)phosphonic acid], the inhibition mode result is recorded as “mixed manner”. Also, the inhibition constant Ki under setting [1] worked out at 1.1 ± 0.2 µM. Also, the Ki under setting [2] was found to be 8.2 ± 1.4 µM. Besides, the IC50 under setting [3] came out at 13 µM.
In the case of `CCCCCCCCCCCCS(=O)(=O)NC(c1ccc(OC)cc1)P(=O)(O)O` (stereo not drawn) [4c, (Dodecylsulfonamido(4-methoxyphenyl)methyl)phosphonic acid], the inhibition mode entry was “noncompetitive inhibition”. Also, the Ki under setting [1] was determined as 95 ± 9 µM. In addition, the Ki under setting [2] was 103 ± 5 µM. Also, the 50% inhibitory concentration (IC50) under setting [3] was found to be 421 µM.
Turning to `CCCCCCCCCCCCS(=O)(=O)NC(c1ccc(OC)cc1)P(=O)(OCC)OCC` (stereo not drawn) [3c, Diethyl(dodecylsulfonamido(4-methoxyphenyl)methyl)phosphonate], the half-inhibitory concentration (IC50) turned out to be 759 µM and the inhibition mode entry was “noncompetitive inhibition”. This molecule also returned a Ki under setting [4] of 211 ± 8 µM. Also, the Ki under setting [5] is 202 ± 11 µM.
Turning to `CCCCCCCCS(=O)(=O)NC(c1ccc(OC)cc1)P(=O)(OCC)OCC` (stereo not drawn) [3b, Diethyl((4-methoxyphenyl)(octylsulfonamido)methyl)phosphonate], the “inhibition of PAP (in words)” value is “negligible inhibitions of PAP, in millimolar range”. For the same molecule, the concentration for half-maximal inhibition (IC50) entry under setting [6] was “Very weak inhibitor”.
As for `CCCCCCCCS(=O)(=O)NC(c1ccc(OC)cc1)P(=O)(O)O` (stereo not drawn) [4b, ((4-Methoxyphenyl)(octylsulfonamido)methyl)phosphonic acid], the “inhibition of PAP (in words)” value is listed as “negligible inhibitions of PAP, in millimolar range”. Under setting [6], the IC50 entry is “Very weak inhibitor”.
On to `CCCCCCCCCCCCCCCCS(=O)(=O)NC(c1ccc(OC)cc1)P(=O)(OCC)OCC` (stereo not drawn) [3d, Diethyl(hexadecylsulfonamido(4-methoxyphenyl)methyl)phosphonate], for which half-maximal inhibition (IC50) required 92 µM and the inhibition mode result is “mixed manner”. Under setting [4], this molecule displayed a Ki of 36 ± 3 µM. Also, under setting [5], the Ki was determined as 13 ± 1 µM.
Take `O=C(O)C(O)C(O)C(=O)O` (stereo not drawn) [Tartrate, reference compound]: the “inhibition of PAP (in words)” value is “weakly inhibited”. The inhibition constant (Ki) under setting [1] turned out to be 783 ± 41 µM. In addition, under setting [3], the IC50 stood at 3310 µM.
As to `CCCCCCS(=O)(=O)NC(c1ccc(OC)cc1)P(=O)(OCC)OCC` (stereo not drawn) [3a, Diethyl(hexylsulfonamido(4-methoxyphenyl)methyl)phosphonate], the “inhibition of PAP (in words)” value is given as “negligible inhibitions of PAP, in millimolar range”. Moreover, the IC50 entry under setting [6] is given as “Very weak inhibitor”.
`CCCCCCS(=O)(=O)NC(c1ccc(OC)cc1)P(=O)(O)O` (stereo not drawn) [4a, (Hexylsulfonamido(4-methoxyphenyl)methyl)phosphonic acid]: the “inhibition of PAP (in words)” value is given as “negligible inhibitions of PAP, in millimolar range”. Under setting [6], the IC50 result is reported as “Very weak inhibitor”.
